Our source for the Kd values is patent US11319299B2, “Substituted carboxamides as inhibitors of WDR5 protein-protein binding” (PROPELLON THERAPEUTICS INC., priority 2016, dated 2022).

As usually defined, the Kd is the equilibrium constant for the complex coming apart.

In this assay the target is WDR5 (Homo sapiens (Human), UniProt P61964). Briefly: Surface Plasmon Resonance (SPR) assay, KD and residence time. It counts as binding. To be noted: surface plasmon resonance (SPR) assay; read-out: WDR5 binding affinity (KD). Background: Surface plasmon resonance follows binding to a sensor surface in real time, without labels.
Take `COc1ccc(CN2CC=C(c3cc(NC(=O)c4c[nH]c(=O)cc4C(F)(F)F)c(N4C[C@@H](C)N(C)[C@@H](C)C4)cc3F)CC2)cc1` [Example 148, N-[4-fluoro-5-[1-[(4-methoxyphenyl)methyl]-3,6-dihydro-2H-pyridin-4-yl]-2-[(3R,5S)-3,4,5-trimethylpiperazin-1-yl]phenyl]-6-oxo-4-(trifluoromethyl)-1H-pyridine-3-carboxamide]: the Kd was 0.54 nM.
The figure for `Cc1cc(-c2cc(NC(=O)c3c[nH]c(=O)cc3C(F)(F)F)c(N3C[C@@H](C)N(C)[C@@H](C)C3)cc2F)cnn1` [Example 149, N-[4-fluoro-5-(6-methylpyridazin-4-yl)-2-[(3R,5S)-3,4,5-trimethylpiperazin-1-yl]phenyl]-6-oxo-4-(trifluoromethyl)-1H-pyridine-3-carboxamide] is 4.65 nM.
The figure for `CC(C)CN1CC=C(c2cc(NC(=O)c3c[nH]c(=O)cc3C(F)(F)F)c(N3C[C@@H](C)N(C)[C@@H](C)C3)cc2F)CC1` [Example 150, N-[4-fluoro-5-[1-(2-methylpropyl)-3,6-dihydro-2H-pyridin-4-yl]-2-[(3R,5S)-3,4,5-trimethylpiperazin-1-yl]phenyl]-6-oxo-4-(trifluoromethyl)-1H-pyridine-3-carboxamide] is 9 nM; for `C[C@@H]1CN(c2cc(F)c(C3=CCN(CC4CC4)CC3)cc2NC(=O)c2c[nH]c(=O)cc2C(F)(F)F)C[C@H](C)N1C` [Example 151, N-[5-[1-(cyclopropylmethyl)-3,6-dihydro-2H-pyridin-4-yl]-4-fluoro-2-[(3R,5S)-3,4,5-trimethylpiperazin-1-yl]phenyl]-6-oxo-4-(trifluoromethyl)-1H-pyridine-3-carboxamide] it is 7.46 nM; for `C[C@@H]1CN(c2cc(F)c(C3=CCN(CCC(F)(F)F)CC3)cc2NC(=O)c2c[nH]c(=O)cc2C(F)(F)F)C[C@H](C)N1C` [Example 152, N-[4-fluoro-2-[(3R,5S)-3,4,5-trimethylpiperazin-1-yl]-5-[1-(3,3,3-trifluoropropyl)-3,6-dihydro-2H-pyridin-4-yl]phenyl]-6-oxo-4-(trifluoromethyl)-1H-pyridine-3-carboxamide] it is 6.33 nM.
The figure for `C[C@@H]1CN(c2cc(F)c(C3=CCN(Cc4ccc(F)cc4)CC3)cc2NC(=O)c2c[nH]c(=O)cc2C(F)(F)F)C[C@H](C)N1C` [Example 153, N-[4-fluoro-5-[1-[(4-fluorophenyl)methyl]-3,6-dihydro-2H-pyridin-4-yl]-2-[(3R,5S)-3,4,5-trimethylpiperazin-1-yl]phenyl]-6-oxo-4-(trifluoromethyl)-1H-pyridine-3-carboxamide] is 1.08 nM; for `C[C@@H]1CN(c2cc(F)c(C3=CCN(Cc4cccnc4)CC3)cc2NC(=O)c2c[nH]c(=O)cc2C(F)(F)F)C[C@H](C)N1C` [Example 154, N-[4-fluoro-5-[1-(pyridin-3-ylmethyl)-3,6-dihydro-2H-pyridin-4-yl]-2-[(3R,5S)-3,4,5-trimethylpiperazin-1-yl]phenyl]-6-oxo-4-(trifluoromethyl)-1H-pyridine-3-carboxamide] it is 5.46 nM; for `C[C@@H]1CN(c2cc(F)c(C3=CCN(Cc4ccsc4)CC3)cc2NC(=O)c2c[nH]c(=O)cc2C(F)(F)F)C[C@H](C)N1C` [Example 155, N-[4-fluoro-2-[(3R,5S)-3,4,5-trimethylpiperazin-1-yl]-5-[1-(thiophen-3-ylmethyl)-3,6-dihydro-2H-pyridin-4-yl]phenyl]-6-oxo-4-(trifluoromethyl)-1H-pyridine-3-carboxamide] it is 4.76 nM.
As to `C[C@@H]1CN(c2cc(F)c(-c3cncc(OCC4CC4)c3)cc2NC(=O)c2c[nH]c(=O)cc2C(F)(F)F)C[C@H](C)N1C` [Example 156, N-[5-[5-(cyclopropylmethoxy)pyridin-3-yl]-4-fluoro-2-[(3R,5S)-3,4,5-trimethylpiperazin-1-yl]phenyl]-6-oxo-4-(trifluoromethyl)-1H-pyridine-3-carboxamide], the dissociation constant (Kd) came out at 8.61 nM.
On to `C[C@@H]1CN(c2cc(F)c(-c3ccc(O)nc3)cc2NC(=O)c2c[nH]c(=O)cc2C(F)(F)F)C[C@H](C)N1C` [Example 157, N-[4-fluoro-5-(6-hydroxypyridin-3-yl)-2-[(3R,5S)-3,4,5-trimethylpiperazin-1-yl]phenyl]-6-oxo-4-(trifluoromethyl)-1H-pyridine-3-carboxamide], for which the Kd is 2.16 nM.
As to `C[C@@H]1CN(c2cc(F)c(-c3cnc(N4CCNCC4)nc3)cc2NC(=O)c2c[nH]c(=O)cc2C(F)(F)F)C[C@H](C)N1C` [Example 158, N-[4-fluoro-5-(2-piperazin-1-ylpyrimidin-5-yl)-2-[(3R,5S)-3,4,5-trimethylpiperazin-1-yl]phenyl]-6-oxo-4-(trifluoromethyl)-1H-pyridine-3-carboxamide], the Kd stood at 0.345 nM.
The figure for `C[C@@H]1CN(c2cc(F)c(-c3cnc(N4CCOCC4)nc3)cc2NC(=O)c2cc(F)cc(Cl)c2)C[C@H](C)N1C` [Example 159, 3-chloro-5-fluoro-N-[4-fluoro-5-(2-morpholin-4-ylpyrimidin-5-yl)-2-[(3R,5S)-3,4,5-trimethylpiperazin-1-yl]phenyl]benzamide] is 29 nM; for `C[C@@H]1CN(c2cc(F)c(-c3cnc(N4CCOCC4)nc3)cc2NC(=O)c2cc(F)cc(F)c2)C[C@H](C)N1C` [Example 160, 3,5-difluoro-N-[4-fluoro-5-(2-morpholin-4-ylpyrimidin-5-yl)-2-[(3R,5S)-3,4,5-trimethylpiperazin-1-yl]phenyl]benzamide] it is 26.8 nM.
In the case of `C[C@@H]1CN(c2cc(F)c(C3=CCN(Cc4nccs4)CC3)cc2NC(=O)c2c[nH]c(=O)cc2C(F)(F)F)C[C@H](C)N1C` [Example 162, N-[4-fluoro-2-[(3R,5S)-3,4,5-trimethylpiperazin-1-yl]-5-[1-(1,3-thiazol-2-ylmethyl)-3,6-dihydro-2H-pyridin-4-yl]phenyl]-6-oxo-4-(trifluoromethyl)-1H-pyridine-3-carboxamide], the Kd amounted to 2.83 nM.
To `Cc1ncc(CN2CC=C(c3cc(NC(=O)c4c[nH]c(=O)cc4C(F)(F)F)c(N4C[C@@H](C)N(C)[C@@H](C)C4)cc3F)CC2)o1` [Example 163, N-[4-fluoro-5-[1-[(2-methyl-1,3-oxazol-5-yl)methyl]-3,6-dihydro-2H-pyridin-4-yl]-2-[(3R,5S)-3,4,5-trimethylpiperazin-1-yl]phenyl]-6-oxo-4-(trifluoromethyl)-1H-pyridine-3-carboxamide] belongs 4.05 nM.
With `C[C@@H]1CN(c2cc(F)c(C3=CCN(Cc4cnn(C)c4)CC3)cc2NC(=O)c2c[nH]c(=O)cc2C(F)(F)F)C[C@H](C)N1C` [Example 164, N-[4-fluoro-5-[1-[(I-methylpyrazol-4-yl)methyl]-3,6-dihydro-2H-pyridin-4-yl]-2-[(3R,5S)-3,4,5-trimethylpiperazin-1-yl]phenyl]-6-oxo-4-(trifluoromethyl)-1H-pyridine-3-carboxamide], the Kd turned out to be 1.43 nM.
With `C[C@@H]1CN(c2cc(F)c(C3=CCN(Cc4ccc(N5CCOCC5)cc4)CC3)cc2NC(=O)c2c[nH]c(=O)cc2C(F)(F)F)C[C@H](C)N1C` [Example 165, N-[4-fluoro-5-[1-[(4-morpholin-4-ylphenyl)methyl]-3,6-dihydro-2H-pyridin-4-yl]-2-[(3R,5S)-3,4,5-trimethylpiperazin-1-yl]phenyl]-6-oxo-4-(trifluoromethyl)-1H-pyridine-3-carboxamide], the dissociation constant (Kd) came to 6.28 nM.
